Assay results from patent publication US9180114B2, “Neurodegenerative diseases and methods of modeling” (PRESIDENT AND FELLOWS OF HARVARD COLLEGE, priority 2008, dated 2015).

Legend:
mice = conditions: cited from earlier work; for induction of (cutaneous) vasodilation: agonist alone
[1] = system: Hb9::GFP human ES cell-derived motor neurons on SOD1G93A glia; assay: Survival of human ES cell-derived motor neurons co-cultured with SOD1G93A glia treated with prostaglandin D2 receptor antagonists; assay type: cell-based; conditions: for Hb9::GFP cells remaining (cell death / survival of motor neurons) on SOD1G93A glia: 10 days of treatment
[2] = system: Hb9::GFP human ES cell-derived motor neurons; assay: Survival of Hb9::GFP human ES cell-derived motor neurons co-cultured with non-transgenic (WT) glia treated with candidate factors; assay type: cell-based; conditions: 20 days of treatment
Method: After 24 hours, the cells had aggregated to form embryoid bodies (EBs), and the media was changed to remove debris by centrifuging the EBs and resuspending in fresh in human ES cell media without bFGF2 or plasmanate in low attachment 6-well plates. EBs were cultured as such for 13 more days, with half of the media changed every two days, and a complete media change every week. After 14 days, the EBs were induced toward a caudal and ventral identity using retinoic acid (1 μM, Sigma) and an agonist of the Shh signaling pathway (1 μM) in N2 media: 1:1 DMEM:F-12+Glutamate (Gibco), 10,000 units Penicillin and 1 mg/mL Streptomicin (Gibco), 1% N2 Supplement (Gibco), 0.2 mM ascorbic acid (Sigma-Aldrich), 0.16% D-(+)-Glucose (Sigma-Aldrich), BDNF (10 ng/ml, R&D Systems), for another 14 days. The EBs were then matured for a final 14 days in N2 media with GNDF (10 ng/mL, R&D Systems). After 42 days of differentiation, the EBs were dissociated. To dissociate the EBs, they were centrifuged at 1000 rpm for 5 min in a 15 ml falcon tube, and then washed once with PBS to eliminate residual media. The EBs were then incubated for 60 minutes at 37° C. in Earle's Balanced Salt Solution with 20 units of papain and 1000 units of Deoxyribonuclease I (Worthington Biochemical Corporation). EBs were triturated using a 2 mL serological pipette every 15-20 minutes during this incubation. When an almost single cell suspension was achieved, the cells were centrifuged for 5 minutes at 1000 RPM. […] These cells were then counted and plated on Poly-D-Lysine/Laminin CultureSlides (BD biosciences) or on a layer of primary glial cells. Depending on the experiment, motor neurons or interneurons were counted 10 or 20 days after plating.
Non-transgenic glia were individually pretreated for 1 day with either one of the three cytokines MCP2, Cxcl7, or Rantes; with GMFb; an agonist of SHH pathway; or with PGD2. […] Replicate cultures were individually maintained for 20 days in the presence of each of the 6 factors, fixed, and the numbers of GFP positive motor neurons quantified. […]

## O=C(O)CCCCCCC1C(=O)NC(=O)N1CCC(O)C1CCCCC1 (stereo not shown) [BW245C]
mice
  induction of (cutaneous) vasodilation: induced vasodilation

## O=C(O)CCCCCCC1C(=O)N(Cc2ccccc2)C(=O)N1NCC(O)C1CCCCC1 (stereo not shown) [BWA868C]
[1]
  Hb9::GFP cells remaining (cell death / survival of motor neurons) on SOD1G93A glia: significantly reduced cell death
[1]; listed as BW868C
  Hb9::GFP cells remaining (cell death / survival of motor neurons) on SOD1G93A glia: significantly reduced neuronal cell death

## CCCCCC(=O)CCC1C(=O)CC(O)C1C/C=C\CCCC(=O)O (stereo not shown) [DK-PGD2, 13,14-dihydro-15-keto-PGD2]
mice
  induction of (cutaneous) vasodilation: did not induce cutaneous vasodilation

## CCCCC[C@H](O)/C=C/[C@H]1C(=O)C[C@H](O)[C@@H]1C/C=C\CCCC(=O)O [PGD2, prostaglandin D2]
[2]; WT glia pretreated 1 day, 10 μM
  number of motor neurons compared to the control condition: 19%+/−2%

## CS(=O)(=O)c1cc(F)cc2c3c(n(Cc4ccc(Cl)cc4)c12)[C@@H](CC(=O)O)CC3 [MK 0524]
mice; PGD2 or nicotinic acid (NA) challenge
  blockade of PGD2- and NA-induced vasodilation: blocked both PGD2- and NA-induced vasodilation
[1]
  increase in the number of GFP positive neurons relative to untreated neurons plated on the same glia: 32%
  neuronal cell death for motor neurons cultured on SOD1G93A glia: significantly reduced neuronal cell death

B1: Mcp2: cytokine over expressed in mutant glia (protein, UniProt Q9Z121 24-97, looked up)
C-C motif chemokine 8: GPDKAPVTCCFHVLKLKIPLRVLKSYERINNIQCPMEAVVFQTKQGMSLCVDPTQKWVSEYMEILDQKSQILQP
[2]; non-transgenic (WT) glia pretreated 1 day, 100 ng/ml
  number of GFP positive motor neurons compared to the control condition: 103%+/−8%

B2: GMFb: glial maturation factor beta, induces a pro-inflammatory state in astrocytes (protein, UniProt Q9CQI3 2-142, looked up)
Glia maturation factor beta: SESLVVCDVAEDLVEKLRKFRFRKETHNAAIIMKIDKDERLVVLDEELEGVSPDELKDELPERQPRFIVYSYKYQHDDGRVSYPLCFIFSSPVGCKPEQQMMYAGSKNKLVQTAELTKVFEIRNTEDLTEEWLREKLGFFH
[2]; non-transgenic (WT) glia pretreated 1 day, 250 ng/ml
  number of human ES cell derived motor neurons compared to the control condition: 95%+/−9%
